The results in this text go back to US7709514B2, “Therapeutic molecules and methods-1” (Cortical Pty Ltd, priority 2002, dated 2010).

Data set [1] deals with IL-1-induced COX-2 expression. The data set can be described thus: IL-1-induced COX-2 expression in S112 human dermal fibroblasts (MIF-dependent bioassay). Type of data set: cell-based. Particulars: Homo sapiens, Fibroblast; for inhibition at 50 µM: read-out: % inhibition of IL-1-induced COX-2 expression; for inhibition at 25 µM: compound 25 μM. On the procedure:
The activity of compounds was studied in a bioassay utilising MIF-dependent activation of human dermal fibroblasts. […] IL-1-induced COX-2 expression is therefore a MIF-dependent event. […] Prior to experimentation, cells were seeded at 10^5 cells/ml in RPMI/0.1% BSA for 18 hours. […] After 6 hours, cells were collected and intracellular COX-2 protein determined by permeabilisation flow cytometry. […] Cellular fluorescence was determined using a flow cytometer. At least 5000 events were counted for each reading, each of which was performed in duplicate, and the results expressed in mean fluorescence intensity (MFI) after subtraction of negative control-labelled cell fluorescence. The effect of each compound was determined by subtracting the IL-1+compound-treated cell MFI from the IL-1-treated cell (control) MFI and expressed as % inhibition. In each case the % inhibition of IL-1-induced COX-2 expression is expressed as the mean, or mean±SEM where results are available from multiple experiments.

Data set [2] has as its system antigen-specific T cell activation. The data set can be described thus: antigen-specific (mBSA) activation of splenic T lymphocytes, 3H-thymidine incorporation. Particulars: Mus musculus, T-cell, read-out: EC50, inhibition of T cell activation. Format: cell-based, mice. On the procedure:
C57BL6/J male mice, aged 7-10 weeks old, were immunised with 200 μg of methylated bovine serum albumin (mBSA) dissolved in 20 μL of saline, emulsified in 200 μL of Freund's complete adjuvant (FCA) by subcutaneous injection. Seven (7) days later mice received a booster immunisation with 100 μg mBSA in 10 μL saline plus 100 μL FCA by subcutaneous injection. After a further seven (7) days mice were killed and spleens collected aseptically into Hanks buffered saline solution (HBSS). A single cell suspension was prepared in Petri dishes by flushing DMEM using a 26G needle and 2 mL syringe. The resulting cell suspension was centrifuged for 5-7 minutes and supernatant discarded. Erythrocytes were lysed using a solution containing 0.579% NH4Cl, 0.000037% EDTA, and 0.1% NaHCO3 in a 37° C. water bath. Tubes were then filled with DMEM and centrifuged for 5-7 minutes. The cell-containing pellet was then resuspended in DMEM containing 5% fetal calf serum TICS) and 0.05% 2-mercapto-ethanol at a concentration of 1×10^6 cells/mL and plated at 1×10^5 cells/well in 96-well plastic tissue culture plates. Test substances (compound or vehicle) were added and incubated for 1 hour in a 37° C., 5% CO2 incubator. The specific stimulating antigen, mBSA, was then added at 10-50 μg/ml and plates incubated for 30 hours in a 37° C., 5% CO2 incubator. Tritiated ^3H-thymidine was then added at a concentration of 0.5 μCi/well for a further 18 hours. Cells were harvested on a Packard cell harvester, and the harvested material added to 750 μL/tube scintillation fluid. Scintillation counts were read on a Wallac beta-emission counter.
The concentration at which T cell activation was suppressed by 50% compared to vehicle-only-treated cells (EC50) was calculated using Prism® software. […] Further compounds were also tested for their ability to inhibit antigen-specific T cell activation as a marker of the inhibition of the cytokine or biological activity of MIF using this assay. Table 5 lists the EC50 for each compound in this assay, performed with concentrations of mBSA of either 50 or 10 μg/ml.
In general terms: Uptake of a labelled nucleoside into DNA is a usual measure of proliferation.

Data set [3] deals with murine peritoneal macrophage nitric oxide production. The data set can be described thus: inhibition of peritoneal macrophage nitric oxide release (Greiss assay). Type of data set: cell-based, mice. To be noted: Mus musculus, LPS 10 ng/ml and interferon-γ 10 units/ml, 24 hours, read-out: % Nitrite concentration inhibition from control. On the procedure: C57BL6/J male mice were injected intraperitoneally with 2 ml of thioglycollate. Five (5) days later peritoneal macrophages were collected by lavaging the peritoneum of anaesthetized mice with 3 ml of cold Hanks buffered saline solution. Cells from several mice were pooled, washed and re-suspended in DMEM supplemented with 5% FCS. Cells were plated in 96 well plastic tissue culture plates at 1×10^5 cells/well. Cells were treated with compound or vehicle for 1 hour in a 5% CO2 incubator at 37° C. Cells were then treated with LPS (10 ng/ml) and recombinant human interferon-γ (10 units/ml) and incubated for 24 hours. After 24 hours, 50 μl of supernatant from each well was carefully removed and transferred to ELISA plates. The concentration of nitrite in culture supernatants was measured by the Greiss assay (27). The results were defined as the percentage inhibition of nitrite concentration in compound-treated cell culture supernatants compared to that of vehicle-treated cells.

[4] abbreviates: compound 50 μM, S112 cells, IL-1 0.1 ng/ml, 6 hours.
[5] abbreviates: S112 cells, IL-1 0.1 ng/ml, 6 hours.

SMILES strings stand for the structures. Read-outs that look alike come from different tables or passages of the source.

A word on the melting point: it is the temperature, or range, at which the solid turns liquid. Broadly, the EC50 is the concentration needed to bring the measured effect to its halfway point. Compound `Cc1ccc2[nH]c(=O)[nH]c2c1` [Compound 2, 5-Methylbenzimidazol-2-one] gave a melting point of 300 to 302 °C. The inhibition at 50 µM in data set [1] (6 h) came to 13%. In data set [2], the EC50 was 7.29 µM.
The compound `O=C(OCCOCCO)c1ccc2[nH]c(=O)[nH]c2c1` [Compound 6, 5[2(1-oxy-2-hydroxyethyl)ethyl]benzimidazol-2-one-5-carboxylate] returned a melting point of 227 to 228 °C. Moreover, the inhibition at 50 µM in data set [1] (setting [4]) is 17.8%. Also, the EC50 in data set [2] (mBSA 10 μg/ml) came out at 25.8 µM. In data set [2] (mBSA 50 μg/ml), the EC50 is more than 100 µM.
With `COC(=O)c1ccc2[nH]c(=O)[nH]c2c1` [Compound 7, benzimidazol-2-one-5-methanoate], in data set [1] (setting [4]), the inhibition at 50 µM is 16.7%. The EC50 was determined as 33.9 µM in data set [2] (mBSA 10 μg/ml) and 44.8 µM in data set [2] (mBSA 50 μg/ml).
Regarding `CCOC(=O)c1ccc2[nH]c(=O)[nH]c2c1` [Compound 8], in data set [1] (setting [4]), the inhibition at 50 µM turned out to be 19.9%. Further, the concentration for a half-maximal effect (EC50) in data set [2] (mBSA 10 μg/ml) is 25.4 µM; in data set [2] (mBSA 50 μg/ml) it was more than 100 µM.
As for `COC(=O)C(CO)NC(=O)c1ccc2[nH]c(=O)[nH]c2c1` (stereo not drawn) [Compound 9, methyl 3-hydroxy-2-{[(2-oxo-2,3-dihydro-1H-1,3-benzimidazol-5-yl)carbonyl]amino}propanoate], the inhibition at 50 µM in data set [1] (setting [4]) amounted to 14.9%. In addition, the EC50 in data set [2] (mBSA 10 μg/ml) came out at 77 µM; in data set [2] (mBSA 50 μg/ml), 61.9 µM.
`O=C(NC(CO)C(=O)O)c1ccc2[nH]c(=O)[nH]c2c1` (stereo not drawn) [Compound 10, 3-hydroxy-2-{[(2-oxo-2,3-dihydro-1H-1,3-benzimidazol-5-yl)carbonyl]amino}propanoic acid]: the inhibition at 50 µM in data set [1] (setting [4]) was determined as 19.3%. Also, the figures for the EC50 in data set [2] (mBSA 10 μg/ml) and in data set [2] (mBSA 50 μg/ml) were more than 100 µM and 77.5 µM, respectively.
As to `COC(=O)C(Cc1ccccc1)NC(=O)c1ccc2[nH]c(=O)[nH]c2c1` (stereo not drawn) [Compound 11, methyl 2-{[(2-oxo-2,3-dihydro-1H-1,3-benzimidazol-5-yl)carbonyl]amino}-3-phenyl propanoate], the values for the inhibition at 50 µM in data set [1] (setting [4]) and in data set [3] (compound 50 μM) were 17.5% and 28.1%, respectively. In addition, the inhibition at 25 µM in data set [3] (compound 25 μM) was 3.1%. In addition, the inhibition at 100 µM in data set [3] (compound 100 μM) was 65.5%. The half-maximal effective concentration (EC50) in data set [2] (mBSA 10 μg/ml) was determined as 44.4 µM; in data set [2] (mBSA 50 μg/ml), 50.7 µM.
As for `O=C(NC(Cc1ccccc1)C(=O)O)c1ccc2[nH]c(=O)[nH]c2c1` (stereo not drawn) [Compound 12, 2-{[(2-oxo-2,3-dihydro-1H-1,3-benzimidazol-5-yl)carbonyl]amino}-3-phenyl propanoic acid], the inhibition at 50 µM in data set [1] (setting [4]) came to 19.9%. The EC50 in data set [2] (mBSA 10 μg/ml) is more than 100 µM; in data set [2] (mBSA 50 μg/ml), 77.9 µM.
For `CCCCCOC(=O)c1ccc2[nH]c(=S)[nH]c2c1` [Compound 15, Pentyl-benzimidazole-2-thioxo-5-carboxylate] the same measures were 33.1%, 9.4 µM and 10.1 µM.
For the compound `CC(=O)OCC1OC(OC(=O)c2ccc3[nH]c(=O)[nH]c3c2)C(OC(C)=O)C(OC(C)=O)C1OC(C)=O` (stereo not drawn) [Compound 16, 3,4,5-tris(acetyloxy)-6-[(acetyloxy)methyl]tetrahydro-2H-pyran-2-yl-benzimidazole-2-one-5-carboxylate], the EC50 in data set [2] (mBSA 10 μg/ml) is 23.8 µM; in data set [2] (mBSA 50 μg/ml), 26 µM.
As for `Cc1cc2[nH]c(=O)[nH]c2cc1Br` [Compound 17, 5-Bromo-6-methybenzimidazol-2-one], in data set [1] (setting [4]), the inhibition at 50 µM came to 22.4%. The concentration giving a half-maximal response (EC50) turned out to be 2.91 µM in data set [2] (mBSA 10 μg/ml) and 10.7 µM in data set [2] (mBSA 50 μg/ml).
For `Cc1cc2[nH]c(=O)[nH]c2cc1O` [Compound 18, 5-Hydroxy-6-methybenzimidazol-2-one], in that order: 2.4%, 19.3 µM and 34 µM.
Turning to `Cc1c(Br)c(Br)c2[nH]c(=O)[nH]c2c1Br` [Compound 20, 4,5,7-Tribromo-6-methylbenzimidazol-2-one], in data set [1] (setting [5]), the inhibition at 25 µM came out at 28.5%.
`Cc1cc2[nH]c(=O)[nH]c2cc1[N+](=O)[O-]` [Compound 22, 5-Methyl-6-nitrobenzimidazol-2-one]: in data set [1] (setting [5]), the inhibition at 25 µM stood at 30%. The EC50 in data set [2] (mBSA 10 μg/ml) and in data set [2] (mBSA 50 μg/ml) was more than 100 µM each time.
Regarding `Cc1cc2[nH]c(=O)[nH]c2cc1N` [Compound 23, 5-Amino-6-methylbenzimidazol-2-one], the inhibition at 50 µM in data set [1] (setting [4]) was found to be 8.5%.
Same read-out and setting: under `Cc1cc2[nH]c(=O)[nH]c2cc1NC(=O)CSc1ncccn1` [Compound 24] stands 30.3%.
As for `CCCCCSC(=O)c1ccc2[nH]c(=O)[nH]c2c1` [Compound 25, Pentyl-benzimidazol-2-one-5-carbothioate], the EC50 in data set [2] (mBSA 10 μg/ml) and in data set [2] (mBSA 50 μg/ml) was more than 100 µM throughout.
As to `O=C(O)CCCC(=O)c1ccc2[nH]c(=O)[nH]c2c1` [Compound 26, 5-(benzimidazol-2(3H)-one-6-yl)-5-oxopentanoic acid], the inhibition at 50 µM in data set [1] (setting [4]) was 9.8%. Also, the concentration for a half-maximal effect (EC50) was 10.2 µM in data set [2] (mBSA 10 μg/ml) and 2.31 µM in data set [2] (mBSA 50 μg/ml).
For `CCCCCNS(=O)(=O)c1ccc2[nH]c(=O)[nH]c2c1` [Compound 27, 2(3H)-benzimidazolone-5-sulfonic acid pentyl amide], the melting point lay in the range of 316 to 318 °C. Also, the inhibition at 50 µM in data set [1] (setting [4]) was found to be 37.4%. Further, the EC50 in data set [2] (mBSA 10 μg/ml) amounted to 9.15 µM. Also, the EC50 in data set [2] (mBSA 50 μg/ml) came to 1.29 µM.
Regarding `CCCCCOS(=O)(=O)c1ccc2[nH]c(=O)[nH]c2c1` [Compound 28, 2(3H)-benzimidazolone-5-sulfonic acid pentyl ester], the EC50 in data set [2] (mBSA 10 μg/ml) is 2.19 µM; in data set [2] (mBSA 50 μg/ml) it was 7.37 µM.
As for `CCCCNC(=N)c1ccc2[nH]c(=O)[nH]c2c1` [Compound 32, N-butyl-2-oxo-2,3-dihydro-1H-1,3-benzimidazole-5-carboximidamide], the melting point came to 168 °C. Further, in data set [1] (setting [4]), the inhibition at 50 µM was determined as 13.8%. Moreover, in data set [2] (mBSA 10 μg/ml), the EC50 was more than 100 µM. Also, the concentration giving a half-maximal response (EC50) in data set [2] (mBSA 50 μg/ml) was more than 100 µM.
`CCCCCCC(=O)c1ccc2c(c1)CC(=O)O2` [Compound 33] showed a melting point of 64 to 67 °C. Further, in data set [2] (mBSA 10 μg/ml), the EC50 is 24.8 µM. For the same compound, the EC50 in data set [2] (mBSA 50 μg/ml) stood at 14 µM.
`CCCCCc1ccc2[nH]c(=O)[nH]c2c1` [Compound 34, 5-Pentylbenzimidazol-2-one]: in data set [1] (compound 10 μM, S112 cells, IL-1 0.1 ng/ml, 6 hours), the inhibition at 10 µM was 14.9%. The half-maximal effective concentration (EC50) in data set [2] (mBSA 10 μg/ml) came out at 13.5 µM; in data set [2] (mBSA 50 μg/ml), 49.9 µM.
